Assay results reported in patent publication US11242331B2 (University of Florida Research Foundation, Incorporated, priority 2016, dated 2022).

Assays:
[1] = tested on: endogenous Nrf2 target gene, NQO1; test: RT-qPCR validation of ARE inhibition in MDA-MB-231-ARE-Luc cells; format: cell-based, human; details: 24 h, relative to 0.5% DMSO
Procedure: (§1) The library compounds were then assessed for the potential to modulate the activity of another key transcription factor, NF-E2-related factor 2 (Nrf2), which acts on the antioxidant response element (ARE) in the promoter region upstream of antioxidant and phase II detoxification enzymes. Activators of the Nrf2-ARE pathway have potential as cancer preventive agents because of their ability to increase antioxidant status of the cell and protect from oxidative damage that could lead to cancer. Inhibitors in turn may increase the susceptibility of cancer cells to chemotherapeutic agents and overcome drug resistance since Nrf2 is commonly activated in cancer.^44 To screen for Nrf2 inhibitors, MDA-MB-231 breast cancer cells (a model for invasive, triple negative breast cancer) stably transfected with the ARE-luciferase reporter were used, where the promoter region is derived from the human NQO1 gene.^45 As a control, cell viability was monitored to ensure the identification of false positives in the reporter gene assay that are a result of concomitant reduced cell viability.
The antioxidant response element (ARE) expression induction assay with LNCaP cells was performed as previously described.^6 The ARE expression inhibition assay was performed with MDA-MB-231-ARE-Luc cells that stably express the ARE reporter construct.7 MDA-MB-231-ARE-Luc cells were seeded in 96 well plates at 1.5×10^4 cells/well in DMEM medium (GIBCO) containing 10% FCS and 1% antibiotic-antimycotic (GIBCO), and allowed to attach overnight. Test compounds were screened in triplicate at three concentrations (100, 10 and 1 μM) and ARE expression was quantified on the EnVision plate reader (Perkin-Elmer) using the BriteLite plus luciferase reporter assay system (Perkin-Elmer) after 24 h exposure in a humidified incubator at 37° C. with 5% CO2. […]
In order to validate the ARE modulatory effects of compounds from the primary screen, the expression of the target Nrf2 target gene, Ngo1, was quantified by RT-qPCR. […]

Staphylococcus aureus = test: Bacterial growth inhibition assay, S. aureus; format: cell-based; details: 16-18 h, OD600
Procedure: (§2) Each biological screen was performed in three independent experiments at concentrations of 1, 10, 100 or 200 μM. All hit compounds identified in primary screens were then evaluated in follow-up assays to validate/confirm the initial screening results.
Bacterial growth inhibition was determined by screening all yohimbine-derived compounds at 200 μM in 96-well plates. Briefly, 2 μL of a 20 mM DMSO stock solution (test compound) was added to 98 μL of media (tryptic soy broth with 0.5% glucose for S. aureus; LB for A. baumannii) before each well was treated with an additional 100 μL of inoculated media (giving ˜10^5 colony forming units per milliliter) prepared from a fresh log-phase culture (OD600 of 0.8 to 1.0). The inoculated 96-well plates were then covered and placed in a humidifying chamber and allowed to incubate at 37° C. for 16-18 hours. Bacterial growth was then determined using a spectrophotometer plate reader (OD600) to quantify turbidity (growth) in each treated and untreated well of the 96-well plates. Turbidity for treated wells were compared to a 1% v/v DMSO vehicle and recorded in the screening heat map. All compounds were tested in three independent experiments.

endogenous NQO1 = test: RT-qPCR validation of ARE activation in LNCaP cells; format: cell-based, human; details: for levels of endogenous NQO1 (ARE activation): 24 h, RT-qPCR, relative to 0.5% DMSO; for potency compared with positive control sulforaphane: NQO1 RT-qPCR, sulforaphane 10 μM
Procedure: (§3) As a control, LNCaP viability was monitored in parallel (FIG. 11E).
(§4) The antioxidant response element (ARE) expression induction assay with LNCaP cells was performed as previously described.^6 The ARE expression inhibition assay was performed with MDA-MB-231-ARE-Luc cells that stably express the ARE reporter construct.7 MDA-MB-231-ARE-Luc cells were seeded in 96 well plates at 1.5×10^4 cells/well in DMEM medium (GIBCO) containing 10% FCS and 1% antibiotic-antimycotic (GIBCO), and allowed to attach overnight. Test compounds were screened in triplicate at three concentrations (100, 10 and 1 μM) and ARE expression was quantified on the EnVision plate reader (Perkin-Elmer) using the BriteLite plus luciferase reporter assay system (Perkin-Elmer) after 24 h exposure in a humidified incubator at 37° C. with 5% CO2. In both cell line assays the luciferase expression for compound-treated wells was expressed relative the 0.5% DMSO carrier solvent control. A parallel viability assay was performed with the Cell Titer 96 Non-radioactive Cell Proliferation Assay (Promega) and the data expressed in the same manner as above. Compounds that inhibited ARE expression 20% more than viability, or induced ARE expression more than three-fold were re-tested in a seven-point, two-fold serial dilution dose-response assay (100-1.56 μM).
In order to validate the ARE modulatory effects of compounds from the primary screen, the expression of the target Nrf2 target gene, Ngo1, was quantified by RT-qPCR. LNCaP and MDA-MB-231-ARE-Luc cells were seeded in 6 well plates at 5×10^5 and 7×10^5 cells per well, in EMEM and DMEM media containing 10% FCS and 1% antibiotic-antimycotic (GIBCO) respectively. Cells were allowed to attach overnight before the addition of test compounds. After 24 h exposure in a humidified incubator at 37° C. with 5% CO2, RNA was isolated using the RNeasy kit (Qiagen) and quantified using a NanoDrop spectrophotometer (Thermo Fisher Scientific). cDNA was synthesized from 2 μg of RNA using Oligo(dT)12-18 (Life Technologies) primer and SuperScript II (Thermo Fisher Scientific) on the Mastercycler Gradient PCR machine (Eppendorf) for 1 h at 42° C. following a 10 min denaturation at 65° C. Gene expression was quantified on the 7300 Real Time PCR machine (Applied Biosystems) using TaqMan Gene Expression Master Mix (Thermo Fisher Scientific) and probes for the target gene Nqo1 (Hs02512143_s1, Thermo Fisher Scientific) and reference gene ActB (Hs99999903_m1, Thermo Fisher Scientific). Real time PCR was performed with the following thermal cycle: 1. 50° C. for 2 min; 2. 95° C. for 10 min; 3. 40 cycles of 95° C. for 15 sec followed by 60° C. for 1 min.

RAW264.7 cells = test: RAW264.7 cell viability (MTT); format: cell-based, mouse; details: 24 h
Procedure: Human colorectal cancer cell lines HCT116, HCT116^HIF-1α−/−HIF-2α−/−, and HCT 116^WT KRAS were cultured in Dulbecco's Modified Eagle Medium (DMEM) supplemented with 10% fetal bovine serum and maintained in 5% CO2 at 37° C. The cells were seeded in a 96-well plate (10,000 cells/well) and treated with different concentrations of test compounds or solvent control (0.5% DMSO) after 24 h. Cell viability was measured 48 h following treatment with MTT dye using the manufacturer's protocol (Promega).
(§5) Mouse macrophage, RAW264.7 cells were cultured in Dulbecco's Modified Eagle Medium (DMEM) supplemented with 10% fetal bovine serum and maintained in 5% C02 at 37° C. Cells were seeded in 96-well plates (20,000 cells/well) and after 24 h pretreated for 1 hour with different concentrations of test compounds in triplicate or solvent control (0.5% DMSO) before adding LPS (1 μg/mL in PBS). Nitric oxide (NO) production in culture supernatant was assessed after 24 h following treatment by measuring nitrite concentration, an oxidative product of NO. Nitrite production was measured by mixing […] of culture supernatant with […] of Griess reagent (Promega), absorbance measured at 540 nm and NO % calculated against a calibration curve generated for fresh sodium nitrite standard. Cells were used for measuring viability (24 h) as above.

[2] = tested on: NO production in RAW264.7 cells; test: Nitric oxide assay (Griess reagent); format: cell-based, mouse; details: RAW264.7 macrophage cells, LPS, 24 h
Procedure: as §2, §5

[3] = tested on: parental HCT116 and HCT116 HIF-1α−/−HIF-2α−/− cells; test: Cell viability assay in isogenic HCT116 lines (HIF-dependent anticancer activity); format: cell-based, human; details: parental HCT116 vs HCT116 HIF-1α/HIF-2α double knockout, 48 h, MTT
Excerpt: The screen aimed to identify selective antiproliferative agents that preferentially act on cancer cells with functional hypoxia-inducible factors (HIF) pathways. […] Isogenic HCT116 colorectal cancer cell lines were employed, including parental HCT116 and HCT116 double knockout cells lacking HIF-1α and HIF-2α,^36,37 and the library was screened for differential antiproliferative activity.

[4] = tested on: Nrf2-ARE pathway (ARE-luciferase reporter); test: ARE luciferase assay in LNCaP cells (activation); format: cell-based, human; details: 24 h, screened at 100, 10 and 1 μM
Procedure: as §2, §3
as §4, with “Compounds that inhibited ARE expression 20% more than viability, or induced ARE expression more than three-fold were re-tested in a seven-point, two-fold serial dilution dose-response assay (100-1.56 μM).” left out

[5] = tested on: Nrf2-ARE pathway (ARE-luciferase reporter); test: ARE luciferase assay in MDA-MB-231-ARE-Luc cells (inhibition); format: cell-based, human; details: 24 h, screened at 100, 10 and 1 μM
Procedure: as §2
as §1, with “viability. […]” for “viability.”

Structure (SMILES): COC(=O)[C@@H]1[C@H]2C[C@@H](c3[nH]c4ccccc4c3CCn3cc(-c4cccc(Cl)c4)nn3)N(C#N)C[C@@H]2CC[C@@H]1O [Y1f]
- transcription of endogenous NQO1 [1]: downregulated NQO1 transcription
- inhibition at 200 µM (Staphylococcus aureus): ~20%

Structure (SMILES): COC(=O)[C@@H]1[C@H]2C[C@@H]3N(CC[C@@]34C(=O)N(c3ccc(Oc5ccccc5)cc3)c3ccccc34)C[C@@H]2CC[C@@H]1O [Y3e]
- transcription of endogenous NQO1 [1]: downregulated NQO1 transcription

Structure (SMILES): OC[C@@H]1[C@H]2C[C@@H]3OCc4ccccc4-n4c3c(c3ccccc34)CCNC[C@@H]2CC[C@@H]1O [Y5b]
- levels of endogenous NQO1 (ARE activation) (endogenous NQO1): active at lower concentrations
- potency compared with positive control sulforaphane (endogenous NQO1): only slightly less potent than the positive control

Structure (SMILES): COC(=O)[C@@H]1[C@H]2C[C@H](OCc3ccc(Br)cc3)c3[nH]c4ccccc4c3CCN(C#N)C[C@@H]2CC[C@@H]1O [Y6q]
- transcription of endogenous NQO1 [1]: downregulated NQO1 transcription
- inhibition at 200 µM (Staphylococcus aureus): ~20%

Structure (SMILES): CC(=O)N1CCc2c([nH]c3ccccc23)[C@H](OCc2ccccc2)C[C@H]2[C@@H](CC[C@H](O)[C@@H]2CO)C1 [Y6u]
- levels of endogenous NQO1 (ARE activation) (endogenous NQO1): active at lower concentrations
- potency compared with positive control sulforaphane (endogenous NQO1): only slightly less potent than the positive control

Structure (SMILES): COC(=O)[C@@H]1[C@H]2C[C@@H]3N(CC[C@@]34C(=O)N(Cc3cccc(OC)c3)c3ccccc34)C[C@@H]2CC[C@@H]1OCc1cccc(OC)c1 [Y7g]
- cell viability (RAW264.7 cells): almost unaffected
- inhibition of nitric oxide (NO) production [2]: most selective anti-inflammatory activity
- differential (HIF-dependent) antiproliferative activity [3]: most selective antiproliferative agent

Structure (SMILES): COC(=O)[C@@H]1[C@H]2C[C@H]3c4[nH]c5ccccc5c4CCN3C[C@@H]2CC[C@@H]1O [yohimbine 1, yohimbine]
- ARE activation (luciferase reporter) [4]: does not possess any of these activities
- ARE inhibition (luciferase reporter) [5]: does not possess any of these activities
- inhibition of nitric oxide (NO) production [2]: does not possess any of these activities
